Laboratory results as given in article PMC3391563 (2011).
Like-named read-outs stand apart in the source and are kept apart here.

Assays:
[1] = molecular target: T1, Af-OMO (ornithine monooxygenase, SidA) (Aspergillus fumigatus, UniProt E9QYP0); test: stopped-flow; format: biochemical
[2] = molecular target: T1, Af-OMO (ornithine monooxygenase, SidA); test: stopped-flow UV/vis, concentration dependence of kobs for FAD-OOH formation; format: biochemical
[3] = molecular target: T1, Af-OMO (ornithine monooxygenase, SidA); test: stopped-flow UV/vis, concentration dependence of kobs; format: biochemical
[4] = molecular target: T1, Af-OMO (ornithine monooxygenase, SidA); test: stopped-flow UV/vis, concentration dependence of kobs for FAD-OOH formation; format: biochemical; remark: listed apart in the source
[5] = molecular target: T1, Af-OMO (ornithine monooxygenase, SidA); test: hydroxylation coupling ratio; format: biochemical
[6] = molecular target: T1, Af-OMO (ornithine monooxygenase, SidA)
[7] = molecular target: T1, Af-OMO (ornithine monooxygenase, SidA); test: stopped-flow UV/vis, concentration dependence of kobs; format: biochemical; remark: listed apart in the source

T1 sequence (E9QYP0 whole entry): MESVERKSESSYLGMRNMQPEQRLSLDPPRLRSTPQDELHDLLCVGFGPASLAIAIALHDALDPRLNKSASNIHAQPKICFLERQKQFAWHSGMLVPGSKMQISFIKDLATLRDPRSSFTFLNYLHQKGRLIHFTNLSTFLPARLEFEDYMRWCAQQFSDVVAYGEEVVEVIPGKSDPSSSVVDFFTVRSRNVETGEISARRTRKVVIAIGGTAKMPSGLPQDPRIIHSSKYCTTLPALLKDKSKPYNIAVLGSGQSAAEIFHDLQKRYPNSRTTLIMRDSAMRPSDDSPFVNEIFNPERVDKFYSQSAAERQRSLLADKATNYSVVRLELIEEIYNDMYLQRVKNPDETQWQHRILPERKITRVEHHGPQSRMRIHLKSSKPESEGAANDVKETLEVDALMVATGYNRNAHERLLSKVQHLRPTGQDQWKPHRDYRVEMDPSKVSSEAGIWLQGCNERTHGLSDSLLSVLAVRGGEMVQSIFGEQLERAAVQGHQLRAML

Which “kFAD (s^-1)” value [1] does the source give for `N[C@@H](CCCNO)C(=O)O` [L-Orn-N^εOH, N^ε-hydroxy-L-ornithine] here?
The value was 0.34 (0.01) s^-1.

Which Kd [2] does the source give for `N=C(N)NCCC[C@H](N)C(=O)O` [L-Arg, L-arginine] here?
The Kd was 620 ± 70 µM.

How did the Kd [3] turn out when `NCCC[C@H](N)C(=O)O` [L-Orn, L-ornithine] was run?
Its Kd is 310 ± 40 µM.

Which Kd [4] does the source give for `NC(=O)NCCC[C@H](N)C(=O)O` [L-Citr, L-citrulline] here?
Its Kd is 4.4 ± 0.9 mM.

`NCCC[C@@H](N)C(=O)O` [D-Orn, D-ornithine] was tested. Which “compd-OH: NADPH ^c” value [5] did it give?
Its value is 0.63 (0.03).

`NCCCCN` [DAB, 1,4-diaminobutane] was tested. Which “compd-OH: NADPH ^c” value [6] did it give?
The value was 0.59 (0.02).

Which Kd [7] does the source give for `NCCCC[C@H](N)C(=O)O` [L-Lys, L-lysine] here?
Its Kd is 130 ± 30 µM.
